Assay results: patent publication US8618111B2, “5-alkynyl-pyrimidines” (Boehringer Ingelheim International GmbH, priority 2010, dated 2013)

Tests used:
BT474 = BT474 cell assay (EC50); type: cell-based; conditions: Homo sapiens, BT-474; BT474 cells
mTOR = mTOR (Homo sapiens (Human), UniProt P42345); test: mTOR kinase activity assay (phosphorylation status of mTOR substrate 4E-BP1; TR-FRET); type: biochemical; conditions: GFP-4E-BP1 substrate, 8 μM ATP
Method: mTOR Kinase Activity Assay
(Phosphorylation Status of mTOR Substrate 4E-BP1; TR-FRET)
The mTOR kinase TR-FRET assay utilizes a physiologically relevant protein substrate for mTOR (4E-BP1, labeled with an acceptor fluorophore (Green Fluorescent Protein) and paired with a corresponding Tb-labeled phospho-specific antibody.
The assay itself is divided into two phases: the reaction phase and the detection phase. In the reaction phase, all components required for the kinase reaction are added to the well, including the labeled protein substrate. The reaction is allowed to incubate for 60 minutes. After the reaction, EDTA is added to stop the kinase reaction, and terbium-labeled antibody is added to bind phosphorylated product. Because the terbium chelate is stable at the EDTA concentrations used to stop a kinase assay, the antibody and EDTA can be pre-mixed prior to addition to minimize pipetting steps. Binding of the terbium labeled antibody to the fluorophore-labeled phosphorylated product brings the terbium and GFP into proximity, resulting in an increase in TR-FRET. In the presence of an inhibitor, formation of phosphorylated product is reduced, and the TR-FRET value is decreased.
• GFP-4E-BP1 substrate; Invitrogen order no. PV4759 • Lanthascreen Tb-anti-p4E-BP1 (pThr46) Antibody Kit; Invitrogen order no. PV4758 • FRAP1 (mTOR) kinase; Invitrogen order no.
400 nM GFP-4E-BP1, 8 μM ATP, ˜150 ng/mL mTOR, 50 mM HEPES pH 7.5, 0.01% Polysorbate 20, 1 mM EGTA, 10 mM MnCl2, and variable amounts of test compounds.
Note: Thaw and keep mTOR, the substrate, ATP, and the antibody on ice prior to making working dilutions. Working dilutions of these components can be kept at room temperature for short periods of time the day of use. • 1. Add 2 ml of 5× Assay Buffer to 8 ml water to prepare 10 ml of 1× Assay Buffer, wherein the concentration of 1× Assay Buffer is 50 mM HEPES pH 7.5, 0.01% Polysorbate 20, 1 mM EGTA, and 10 mM MnCl2. • 2. Prepare Antibody/EDTA Solution by first adding 2.75 μl of Tb-anti p4E-BP1 Antibody to 2397 μl of LanthaScreen™ TR-FRET Dilution Buffer. Then, add 100 μl of 0.5 M EDTA. • 3. […] Then, add 1.6 μl of mTOR (0.45 mg/mL). • 4. Prepare ATP Solution by adding 3.2 μl of 10 mM ATP to 1997 μl of 1× Assay Buffer. Serial Dilution of Inhibitors (16 Point Curve)
Inhibitors are serially diluted in DMSO, then diluted to a 4× working concentration with 1× Assay Buffer. • 1. Dispense 40 μl of DMSO to two adjacent columns of a 96 well plate per compound (e.g. columns 1 and 2). • 2. Add 10 μl of inhibitor stock (10 mM) to the first well of the first column (A1) and mix. • 3. Remove 10 μl from A1 and transfer to the adjacent well in the next column (B1) and mix. • 4. Remove 10 μl from B1 and transfer to the next well in the first column (B2) and mix. • 5. […] Remove 4 μl of diluted compounds and add to 96 μl of 1× Assay Buffer in a 96-well plate making 4× compound dilutions. Kinase Reaction • 1. Add 2.5 μl of 4X compound dilutions to a 384-well plate. • 2. […] Preincubate for […] at RT (shaker). • 5. Add 5 μl of ATP Solution to all wells to start reactions. • 6. Shake the assay plate on a plate shaker for 30 seconds. • 7. Incubate the assay plate for one hour at room temperature (20-25° C.). Stop Step and Fluorescence Detection • 1. Add 10 μl of Antibody/EDTA Solution to each well in columns 1-9. • 2. Shake the assay plate on a plate shaker for 30 seconds. • 3. Incubate the assay plate for one hour at room temperature (20-25° C.). • 4. Measure the GFP (FRET) and terbium (reference) emission signals on a fluorescence plate reader (e.g. Perkin Elmer Envision). Data Analysis • 1. Calculate the emission ratio for each sample by dividing the GFP (FRET) signal by the terbium (reference) signal. • 2.

PI3Kalpha = PI3Kalpha (Homo sapiens (Human), UniProt P42336); test: Inhibition of PI3Kalpha-induced PIP-2 phosphorylation (filter-binding assay); type: biochemical; conditions: 33P-ATP
Method: Inhibition of PI3Kalpha-Induced PIP-2 Phosphorylation
Method Type: Filter-Binding-Assay
Aliquoted in desired amounts and stored at −80° C. Final assay concentration 25 ng/well.

[1] = test system: PC3 (human prostate carcinoma cell line) cells; test: PC3 proliferation test; type: cell-based; conditions: PC-3, 72 h, 3 days incubation, DNA dye fluorescence
Method: The test is based on measurement of cellular DNA content via fluorescent dye binding. Because cellular DNA content is highly regulated, it is closely proportional to cell number. The extent of proliferation is determined by comparing cell counts for samples treated with drugs with untreated controls.
PC3 (human prostate carcinoma cell line) cells are sown in microtitre plates and incubated overnight in culture medium at 37° C. and 5% CO2. The test substances are diluted stepwise and added to the cells such that the total volume is 200 μL/well. Cells to which diluent, but not substance, is added serve as controls.

Chain of mTOR (P42345 1360-2549): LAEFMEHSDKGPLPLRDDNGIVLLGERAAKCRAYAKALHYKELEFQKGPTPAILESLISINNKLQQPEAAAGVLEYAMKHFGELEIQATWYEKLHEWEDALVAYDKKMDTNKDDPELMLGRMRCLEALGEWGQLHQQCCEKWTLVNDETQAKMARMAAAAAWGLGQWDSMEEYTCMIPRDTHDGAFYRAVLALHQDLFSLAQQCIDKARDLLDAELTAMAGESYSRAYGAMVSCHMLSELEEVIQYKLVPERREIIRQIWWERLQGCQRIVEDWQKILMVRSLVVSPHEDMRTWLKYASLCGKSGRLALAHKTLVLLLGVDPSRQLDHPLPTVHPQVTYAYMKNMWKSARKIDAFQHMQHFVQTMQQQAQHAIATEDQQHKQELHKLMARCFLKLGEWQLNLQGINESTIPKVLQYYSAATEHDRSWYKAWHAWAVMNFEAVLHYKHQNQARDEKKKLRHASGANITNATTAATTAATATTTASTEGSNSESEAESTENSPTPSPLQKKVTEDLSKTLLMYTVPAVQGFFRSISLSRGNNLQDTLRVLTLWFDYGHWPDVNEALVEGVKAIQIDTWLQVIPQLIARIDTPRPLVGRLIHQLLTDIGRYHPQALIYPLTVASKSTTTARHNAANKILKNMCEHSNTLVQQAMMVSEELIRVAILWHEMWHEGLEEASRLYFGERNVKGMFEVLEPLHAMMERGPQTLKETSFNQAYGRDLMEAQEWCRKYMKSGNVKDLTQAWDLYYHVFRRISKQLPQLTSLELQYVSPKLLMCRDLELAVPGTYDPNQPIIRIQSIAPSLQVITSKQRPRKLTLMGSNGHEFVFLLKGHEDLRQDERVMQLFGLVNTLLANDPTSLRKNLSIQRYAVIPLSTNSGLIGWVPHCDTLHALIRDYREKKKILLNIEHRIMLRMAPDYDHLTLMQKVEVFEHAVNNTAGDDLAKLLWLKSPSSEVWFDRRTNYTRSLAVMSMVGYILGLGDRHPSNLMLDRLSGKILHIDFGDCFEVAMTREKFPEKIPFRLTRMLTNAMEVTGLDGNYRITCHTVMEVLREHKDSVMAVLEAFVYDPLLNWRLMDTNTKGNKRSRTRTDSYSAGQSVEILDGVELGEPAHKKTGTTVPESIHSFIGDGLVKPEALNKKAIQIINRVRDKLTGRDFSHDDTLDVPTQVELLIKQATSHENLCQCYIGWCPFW
Chain of PI3Kalpha (P42336 whole entry, species assumed): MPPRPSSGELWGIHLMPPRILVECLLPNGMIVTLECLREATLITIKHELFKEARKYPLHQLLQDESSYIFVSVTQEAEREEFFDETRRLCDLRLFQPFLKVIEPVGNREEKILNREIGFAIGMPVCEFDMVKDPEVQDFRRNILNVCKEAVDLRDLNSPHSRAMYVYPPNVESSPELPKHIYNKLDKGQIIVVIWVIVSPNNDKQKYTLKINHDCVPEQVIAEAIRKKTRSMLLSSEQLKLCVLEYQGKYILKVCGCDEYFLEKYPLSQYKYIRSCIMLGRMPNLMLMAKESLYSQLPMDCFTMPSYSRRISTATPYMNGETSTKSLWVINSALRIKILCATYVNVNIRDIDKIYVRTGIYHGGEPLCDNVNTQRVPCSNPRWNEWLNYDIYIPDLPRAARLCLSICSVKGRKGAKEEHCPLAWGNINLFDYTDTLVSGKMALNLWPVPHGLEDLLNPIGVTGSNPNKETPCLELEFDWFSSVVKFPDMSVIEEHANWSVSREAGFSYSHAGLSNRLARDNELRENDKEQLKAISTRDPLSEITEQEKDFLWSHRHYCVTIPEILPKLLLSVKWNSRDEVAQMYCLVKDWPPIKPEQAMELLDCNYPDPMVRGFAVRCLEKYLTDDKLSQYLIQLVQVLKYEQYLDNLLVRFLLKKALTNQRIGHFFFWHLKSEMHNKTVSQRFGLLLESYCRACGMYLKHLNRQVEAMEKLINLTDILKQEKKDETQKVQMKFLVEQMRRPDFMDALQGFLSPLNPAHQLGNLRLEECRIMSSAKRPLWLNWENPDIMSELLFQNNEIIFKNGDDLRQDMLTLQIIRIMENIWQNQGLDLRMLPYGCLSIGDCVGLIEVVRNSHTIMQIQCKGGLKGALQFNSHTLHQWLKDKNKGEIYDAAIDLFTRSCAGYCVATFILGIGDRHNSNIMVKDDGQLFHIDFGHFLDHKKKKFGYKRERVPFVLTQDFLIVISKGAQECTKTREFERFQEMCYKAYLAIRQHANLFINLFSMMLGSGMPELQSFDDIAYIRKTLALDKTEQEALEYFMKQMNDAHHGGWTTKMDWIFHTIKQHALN
Chain of PI3Kalpha (P27986 whole entry partner, species assumed): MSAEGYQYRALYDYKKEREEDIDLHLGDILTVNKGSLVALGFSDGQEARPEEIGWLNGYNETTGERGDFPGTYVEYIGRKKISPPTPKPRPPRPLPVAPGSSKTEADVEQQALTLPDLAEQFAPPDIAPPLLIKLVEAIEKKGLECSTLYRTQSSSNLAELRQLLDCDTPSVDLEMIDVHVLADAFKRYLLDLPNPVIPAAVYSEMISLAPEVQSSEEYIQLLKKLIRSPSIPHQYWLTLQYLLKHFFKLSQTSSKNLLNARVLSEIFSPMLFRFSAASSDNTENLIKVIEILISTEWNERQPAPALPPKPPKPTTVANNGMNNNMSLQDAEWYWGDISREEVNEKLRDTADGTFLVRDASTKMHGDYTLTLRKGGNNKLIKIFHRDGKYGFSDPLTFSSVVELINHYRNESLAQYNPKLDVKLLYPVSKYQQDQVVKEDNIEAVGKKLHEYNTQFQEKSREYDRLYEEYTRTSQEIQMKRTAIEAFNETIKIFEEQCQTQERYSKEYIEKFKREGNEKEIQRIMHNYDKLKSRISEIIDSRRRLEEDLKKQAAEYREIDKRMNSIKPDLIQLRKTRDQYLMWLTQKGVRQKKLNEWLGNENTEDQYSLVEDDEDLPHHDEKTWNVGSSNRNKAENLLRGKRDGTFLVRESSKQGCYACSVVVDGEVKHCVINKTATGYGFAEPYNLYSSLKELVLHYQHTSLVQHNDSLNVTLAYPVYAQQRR

| Compound | EC50 (BT474) [nM] | IC50 (mTOR) [nM] | IC50 PI3Ka (PI3Kalpha) [nM] | EC50 [1] [nM] |
| --- | --- | --- | --- | --- |
| CCc1ncnc(N2CCN(c3cccnc3)CC2)c1C#Cc1ccc(N)nc1 [Example H-23] | 139 | 14 | 48 | – |
| COCCN1CCN(c2ncnc(C)c2C#Cc2ccc(N)nc2)CC1 [Example B-2] | – | 32 | 145 | 301 |
| CCc1ncnc(N2CCC(F)(F)CC2)c1C#Cc1ccc(N)nc1 [Example B-42] | – | 31 | 196 | 105 |
| Cc1ncnc(N2CCN(C(=O)c3ccno3)CC2)c1C#Cc1ccc(N)nc1 [Example G-9] | – | 55 | 39 | 310 |
| CCc1ncnc(N2CCN(C(=O)c3ccccc3)CC2)c1C#Cc1ccc(N)nc1 [Example G-5] | – | 157 | 110 | 225 |
| CCc1ncnc(N2CCC(C)(OC)CC2)c1C#Cc1ccc(N)nc1 [Example B-59] | – | 5 | 53 | 23 |
| CCc1ncnc(N2CCC(OC)CC2)c1C#Cc1ccc(NC)nc1 [Example B-86] | – | 9 | 94 | 115 |
| CCc1ncnc(N2CCOCC2)c1C#Cc1ccc(N)nc1 [Example B-57] | – | 93 | 46 | 119 |
| Cc1ncnc(N2CCC3(CCNC3=O)CC2)c1C#Cc1ccc(N)nc1 [Example B-84] | – | 19 | 32 | 126 |
| CCc1ncnc(N2CCC(OC)CC2)c1C#Cc1ccc(N)nc1 [Example B-44] | – | 10 | 58 | 76 |
| Cc1ncnc(N2CCN(C3CC3)CC2)c1C#Cc1ccc(N)nc1 [Example B-5] | – | 10 | 58 | 118 |
| COC1CCN(c2ncnc(C)c2C#Cc2ccc(N)nc2)CC1 [Example B-38] | – | 18 | 37 | 122 |
| CCc1ncnc(N2CCN(C(=O)NC)CC2)c1C#Cc1ccc(N)nc1 [Example G-1] | – | 84 | 33 | 212 |
| CCc1ncnc(N2CCC3(CCN(C(=O)NC)CC3)CC2)c1C#Cc1ccc(N)nc1 [Example G-13] | – | 35 | 50 | 53 |
| CCc1ncnc(N2CCC(O)(C(F)(F)F)CC2)c1C#Cc1ccc(C)nc1 [Example B-31] | – | 37 | 172 | 80 |
| Cc1ncnc(N2CCC3(CC2)OCCCO3)c1C#Cc1ccc(N)nc1 [Example B-60] | – | 6 | 14 | 75 |
| CC(=O)NC1CCN(c2ncnc(C)c2C#Cc2ccc(N)nc2)CC1 [Example B-25] | – | 42 | 78 | 267 |
| Cc1ncnc(N2CCC(O)(Cc3ccccc3)CC2)c1C#Cc1ccc(N)nc1 [Example B-28] | – | 50 | 70 | 195 |
| CCc1ncnc(N2CCN(C(C)=O)CC2)c1C#Cc1ccc(N)nc1 [Example B-40] | – | 32 | 62 | 187 |
| CCc1ncnc(N2CCC(O)C(C)C2)c1C#Cc1ccc(N)nc1 (stereo not drawn) [Example B-64] | – | 10 | 55 | 53 |
| CCc1ncnc(N2CCC(C(C)(C)O)CC2)c1C#Cc1ccc(N)nc1 [Example B-11] | – | 7 | 31 | 60 |

| Compound | EC50 (BT474) [nM] | IC50 (mTOR) [nM] | IC50 PI3Ka (PI3Kalpha) [nM] | EC50 [1] [nM] |
| --- | --- | --- | --- | --- |
| CCc1ncnc(N2CCC3(CCNC3=O)CC2)c1C#Cc1ccc(N)nc1 [Example B-85] | – | 30 | 95 | 153 |
| CCc1ncnc(N2CCCC(CO)C2)c1C#Cc1ccc(C)nc1 (stereo not drawn) [Example B-71] | – | 108 | 90 | 388 |
| Cc1ncnc(N2CCC(CNC(=O)CC3CCCC3)CC2)c1C#Cc1ccc(N)nc1 [Example F-3] | – | 16 | 39 | 335 |
| CCc1ncnc(N2CCC(OC)CC2)c1C#Cc1ccc(C)nc1 [Example B-68] | – | 122 | 183 | 589 |
| Cc1ncnc(N2CC[S+]([O-])CC2)c1C#Cc1ccc(N)nc1 [Example B-3] | – | 83 | 199 | 501 |
| CCc1ncnc(N2CCN(CC(C)(C)O)CC2)c1C#Cc1ccc(N)nc1 [Example B-81] | – | 7 | 143 | 71 |
| CCc1ncnc(N2CCC(C)(O)CC2)c1C#Cc1ccc(N)nc1 [Example B-47] | – | 5 | 36 | 46 |
| CCc1ncnc(N2CCC(CC(C)(C)O)CC2)c1C#Cc1ccc(N)nc1 [Example B-14] | – | 9 | 26 | 29 |
| Cc1ncnc(N2CCC(CNC(=O)C3CCCCC3)CC2)c1C#Cc1ccc(N)nc1 [Example F-6] | – | 78 | 51 | 277 |
| Cc1ncnc(N2CCC(CCO)CC2)c1C#Cc1ccc(N)nc1 [Example B-30] | – | 9 | 14 | 49 |
| Cc1ncnc(N2CCC3(CC2)OCCO3)c1C#Cc1ccc(N)nc1 [Example B-26] | – | 10 | 60 | 27 |
| CCc1ncnc(N2CCC3(CCN(C)C3=O)CC2)c1C#Cc1ccc(N)nc1 [Example B-77] | – | 8 | 67 | 43 |
| CCc1ncnc(N2CCN(C(=O)C3CC3)CC2)c1C#Cc1ccc(N)nc1 [Example G-4] | – | 113 | 46 | 206 |
| Cc1ncnc(N2CCC(O)(c3ccccc3)CC2)c1C#Cc1ccc(N)nc1 [Example B-27] | – | 23 | 22 | 56 |
| CCc1ncnc(N2CCC(C(F)(F)F)CC2)c1C#Cc1ccc(N)nc1 [Example B-41] | – | 9 | 201 | 19 |
| Cc1ncnc(N2CCC3(CCN(C)CC3)CC2)c1C#Cc1ccc(N)nc1 [Example B-80] | – | 25 | 99 | 161 |
| CCc1ncnc(N2CCC(COC)CC2)c1C#Cc1ccc(N)nc1 [Example B-39] | – | 19 | 87 | 50 |
| CCc1ncnc(N2CCC(O)(Cc3ccccc3)CC2)c1C#Cc1ccc(N)nc1 [Example B-17] | – | 74 | 115 | 129 |
| CCc1ncnc(N2CCC(=O)CC2)c1C#Cc1ccc(N)nc1 [Example B-62] | – | 28 | 109 | 105 |
| CCc1ncnc(N2CCN(C3CC3)CC2)c1C#Cc1ccc(N)nc1 [Example B-51] | – | 43 | 86 | 129 |
